According to patent US10323056B2, “Crystalline hydrates of 1-(β-D-glucopyranosyl)-4-methyl-3-[5-(4-fluorophenyl)-2-thienylmethyl]benzene” (Lek Pharmaceuticals d.d., priority 2013, dated 2019):

What was measured:
Assay type in all cases: physicochemical
[1] = Equilibrium aqueous solubility (HPLC); details: for Rel. Solubilities: equilibrium aqueous solubility at 25 ± 1° C., relative to forms HxA/HxB = 100
Method: The aqueous solubilities of 1-(β-D-glucopyranosyl)-4-methyl-3-[5-(4-fluorophenyl)-2-thienylmethyl]benzene forms HxA and HxB of the present invention and the hemihydrate of 1-(β-D-glucopyranosyl)-4-methyl-3-[5-(4-fluorophenyl)-2-thienylmethyl]benzene described in WO 2008/069327 A1 were determined by the equilibrium solubility method. Saturated solutions of 1-(β-D-glucopyranosyl)-4-methyl-3-[5-(4-fluorophenyl)-2-thienylmethyl]benzene, obtained by stirring 50 mg of each crystalline form in 50 mL water were prepared and stirred at 25±1° C. After 60 minutes of stirring, three samples were withdrawn, filtered through 0.45 μm syringe filters and the filtrates were directly analyzed by HPLC. • Column: C18 4.6×150 mm 5 μm • Eluent A: 0.1% formic acid-water solution • Eluent B: 0.1% formic acid-acetonitril solution • Injection vol.: 100 μL • Column Temp.: 25° C. • Wavelength: 220 nm • Pump flow: 1.2 mL/min • Gradient: […]
Using six concentration points of known 1-(β-D-glucopyranosyl)-4-methyl-3-[5-(4-fluorophenyl)-2-thienylmethyl]benzene concentrations a calibration line was fitted by linear regression.

[2] = Water content by gravimetric moisture sorption/desorption and TGA
Method: The water values at varying relative humidities were obtained by recording moisture sorption isotherms with a SPS-11 moisture sorption analyzer (MD Messtechnik, Ulm, D). […] The equilibrium condition for each step was set to a mass constancy of ±0.005% over 60 min. The temperature was 25±0.1° C.
Thermogravimetric analysis (TGA) was performed using the following equipment/conditions: Thermogravimetric-system TGA-7, Pyris-Software für Windows NT, (Perkin-Elmer, Norwalk, Conn., USA), Platinum-sample holder (50 μl), Nitrogen as the purge gas (Sample purge: 20 mL/min, balance purge: 40 mL/min). Heating rate: 10 K/min; Heating Range: 25-100° C.;

[3] = Competitive slurry in water (XRPD); details: 50 mg each in 4 mL water, cycled 7 to 10° C. for 4 days, then 10 to 30° C. for 9 days
Method: A suspension of 50 mg 1-(β-D-glucopyranosyl)-4-methyl-3-[5-(4-fluorophenyl)-2-thienylmethyl]benzene form HxA (for example prepared according to the procedure described in example 1 of the present invention) and 50 mg 1-(β-D-glucopyranosyl)-4-methyl-3-[5-(4-fluorophenyl)-2-thienylmethyl]benzene hemihydrate (for example prepared according to the procedure described in example 1 of WO 2008/069327 A1) in 4 mL water was stirred at moderate velocity using a magnetic stirrer. The temperature during the slurry experiment was first cycled between 7 to 10° C. for 4 days changing the temperature every 2 hours. Thereafter the suspension was cycled in the range of 10 to 30° C. for 9 days changing the temperature every 2 hours.

Cc1ccc([C@@H]2O[C@H](CO)[C@@H](O)[C@H](O)[C@H]2O)cc1Cc1ccc(-c2ccc(F)cc2)s1 [form HxA, 1-(β-D-glucopyranosyl)-4-methyl-3-[5-(4-fluorophenyl)-2-thienylmethyl]benzene]
Rel. Solubilities [1]: 100%
increased aqueous solubility compared to the crystalline hemihydrate of WO 2008/069327 A1 ([1]; water, 25.0±1.0° C.): 10%
water content ([2]; at a RH of about 0%): about 0.1%
water content ([2]; at a RH of about 30%): about 3.5%
solid form stability in competitive slurry with hemihydrate [3]: does not transform

Cc1ccc([C@@H]2O[C@H](CO)[C@@H](O)[C@H](O)[C@H]2O)cc1Cc1ccc(-c2ccc(F)cc2)s1 [form HxB, 1-(β-D-glucopyranosyl)-4-methyl-3-[5-(4-fluorophenyl)-2-thienylmethyl]benzene]
water content ([2]; at a RH of about 40%): about 6.4%
water content ([2]; at a RH of about 95%): about 8.0%

Cc1ccc([C@@H]2O[C@H](CO)[C@@H](O)[C@H](O)[C@H]2O)cc1Cc1ccc(-c2ccc(F)cc2)s1 [form Hy0.5, 1-(β-D-glucopyranosyl)-4-methyl-3-[5-(4-fluorophenyl)-2-thienylmethyl]benzene hemihydrate, reference compound]
Rel. Solubilities ([1]; listed as hemihydrate of WO 2008/069327 A1 (=Hy0.5), hemihydrate): 90%
